# Assay results taken from BindingDB's records for doi:10.1074/jbc.M110.156463 (Merck Research Laboratories, 2011).
# Molecular target: T1, 3-phosphoinositide-dependent protein kinase 1 (Homo sapiens, UniProt O15530)
# T1 sequence (O15530 whole entry): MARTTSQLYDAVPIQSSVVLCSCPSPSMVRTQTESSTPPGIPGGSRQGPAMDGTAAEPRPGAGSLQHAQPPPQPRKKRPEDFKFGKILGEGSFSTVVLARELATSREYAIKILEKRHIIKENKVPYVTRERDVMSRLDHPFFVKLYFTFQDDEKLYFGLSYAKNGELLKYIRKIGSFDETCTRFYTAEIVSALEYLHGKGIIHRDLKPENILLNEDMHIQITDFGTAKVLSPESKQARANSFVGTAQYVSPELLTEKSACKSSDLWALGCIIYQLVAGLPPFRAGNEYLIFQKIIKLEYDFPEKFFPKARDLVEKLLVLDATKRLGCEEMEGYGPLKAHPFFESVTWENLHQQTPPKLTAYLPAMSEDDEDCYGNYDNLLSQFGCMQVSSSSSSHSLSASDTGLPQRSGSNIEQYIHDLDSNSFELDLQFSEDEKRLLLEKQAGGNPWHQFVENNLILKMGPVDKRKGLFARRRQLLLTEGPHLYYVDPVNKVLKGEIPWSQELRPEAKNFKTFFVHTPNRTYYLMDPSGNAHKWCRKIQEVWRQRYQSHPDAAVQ
# Test: Proliferation Assay
# Method: Enzyme potency (PDK1 EC50)was determined using recombinant, purified full-length human PDK1 enzyme and AKT-Thr-308-tide as substrate.
row,EC50,SMILES
1,0.001 µM,CC(C)(C)c1nc2c3ccc(F)cc3c3c(=O)[nH]ccc3c2[nH]1 [Jak Inhibitor 1]
2,0.009 µM,Cc1[nH]nc2c1c(=O)n(CCCN)c1ccc(Cl)cc21
3,0.009 µM,"CC(Nc1nc2c(C#CC3CC3)c[nH]c(=O)c2c2cc(-c3cn[nH]c3)ccc12)C(C)(C)C (stereo unspecified) [PDK1 inhibitor, 2]"
4,0.2 µM,"COc1ccc(C#Cc2ccc3ncc4ncn(-c5ccc(CCN)cc5)c4c3c2)cc1 [PDK1 inhibitor, 4]"
5,0.026 µM,O=C(NCCCNc1nc(Nc2cccc(NC(=O)N3CCCC3)c2)ncc1I)c1cccs1 [N-{3-[(5-iodo-4-{[3-(thiophen-2-ylformamido)propyl]amino}pyrimidin-2-yl)amino]phenyl}pyrrolidine-1-carboxamide]
6,0.012 µM,"Cc1[nH]nc(-c2nc3cc4c[nH][nH]c4cc3n2)c1C(=O)NC1CCNCC1 [PDK1 inhibitor, 6]"
